Results as given in ChEMBL document CHEMBL4334431, “Gramicidin S-inspired antimicrobial cyclodextrin to disrupt gram-negative and gram-positive bacterial membranes” (Medchemcomm, 2019).
Converted amounts (≈) assume the structure as drawn. The source made the active and inactive calls. The calls are words filed in the database; no cut-off is given here. Square brackets hold non-standard residues; d marks the D form. Peptide text beside a SMILES is read from it. Orn = NCCC[C@H](N)C(=O)O

Assays:
Staphylococcus aureus [1] = assay: Antibacterial activity against Staphylococcus aureus FDA 209P assessed as bacterial growth inhibition after 20 hrs by liquid microdilution method; type: functional
Bacillus subtilis = assay: Antibacterial activity against Bacillus subtilis 168 assessed as bacterial growth inhibition after 20 hrs by liquid microdilution method; type: functional; details: Bacillus subtilis, 168, 20 h
Escherichia coli [2] = assay: Antibacterial activity against Escherichia coli K12 W3110 assessed as bacterial growth inhibition after 20 hrs by liquid microdilution method; type: functional
Salmonella typhimurium = assay: Antibacterial activity against Salmonella typhimurium LT2 assessed as bacterial growth inhibition after 20 hrs by liquid microdilution method; type: functional, Salmonella enterica subsp. enterica serovar Typhimurium; details: Salmonella enterica, LT2, 20 h
Pseudomonas aeruginosa [3] = assay: Antibacterial activity against Pseudomonas aeruginosa PAO1 assessed as bacterial growth inhibition after 20 hrs by liquid microdilution method; type: functional
[4] = Haemolytic activity in rabbit RBCs at 50 uM relative to control; type: ADME, cell-based, Oryctolagus cuniculus, Erythrocyte; details: rabbit red blood cells (erythrocytes), read-out: Activity
[5] = Partition coefficient, log P of compound; type: physicochemical; details: octanol/water
Escherichia coli [6] = assay: Antimicrobial activity against ESBL-producing Escherichia coli assessed as bacterial growth inhibition after 20 hrs by liquid microdilution method; type: functional
Escherichia coli [7] = assay: Antimicrobial activity against carbapenem-resistant Escherichia coli assessed as bacterial growth inhibition after 20 hrs by liquid microdilution method; type: functional
Pseudomonas aeruginosa [8] = assay: Antibacterial activity against carbapenem-reistant Pseudomonas aeruginosa PAO1 assessed as bacterial growth inhibition after 20 hrs by liquid microdilution method; type: functional; details: PAO1, 20 h
Escherichia coli [9] = assay: Antimicrobial activity against […] at sub-MIC treated by resistant development assay; type: functional; details: K-12 substr. W3110
Staphylococcus aureus [10] = assay: Antibacterial activity against Staphylococcus aureus FDA 209P at sub-MIC by resistant development assay; type: functional
Staphylococcus aureus [11] = assay: Induction of membrane permeabilization in Staphylococcus aureus FDA 209P assessed as decrease in cell viability; type: functional, organism-based
Staphylococcus aureus [12] = assay: Induction of membrane permeabilization in Staphylococcus aureus FDA 209P assessed as increase in potassium efflux; type: functional, organism-based
Escherichia coli [13] = assay: Induction of membrane permeabilization in Escherichia coli K12 W3110 assessed as increase in potassium efflux; type: functional, organism-based
Escherichia coli [14] = assay: Induction of membrane permeabilization in Escherichia coli K12 W3110 assessed as decrease in cell viability; type: functional, organism-based

MIC (Staphylococcus aureus [1]) [µM] | MIC (Bacillus subtilis) [µM] | MIC (Escherichia coli [2]; K-12 substr. W3110, 20 h) [µM] | MIC (Salmonella typhimurium) [µM] | MIC (Pseudomonas aeruginosa [3]; PAO1, 20 h) [µM] | logP [5] | Molecule | hemolysis at 50 µM [4] [%] | further results
> 45 | 22 (≈ 42.6 µg/mL) | > 45 | > 45 | > 45 | -2.66 | NCc1cn(C[C@H]2O[C@@H]3O[C@H]4[C@H](O)[C@@H](O)[C@@H](O[C@H]5[C@H](O)[C@@H](O)[C@@H](O[C@H]6[C@H](O)[C@@H](O)[C@@H](O[C@H]7[C@H](O)[C@@H](O)[C@@H](O[C@H]8[C@H](O)[C@@H](O)[C@@H](O[C@H]9[C@H](O)[C@@H](O)[C@@H](O[C@H]%10[C@@H](O)[C@H](O)[C@@H](O[C@H]2[C@H](O)[C@H]3O)O[C@@H]%10Cn2cc(CN)nn2)O[C@@H]9Cn2cc(CN)nn2)O[C@@H]8Cn2cc(CN)nn2)O[C@@H]7Cn2cc(CN)nn2)O[C@@H]6Cn2cc(CN)nn2)O[C@@H]5Cn2cc(CN)nn2)O[C@@H]4Cn2cc(CN)nn2)nn1 | 0 | 
4 (≈ 4.57 µg/mL) |  | 28 (≈ 32 µg/mL) |  |  |  | CC(C)C[C@@H]1NC(=O)[C@H](CCCN)NC(=O)[C@H](C(C)C)NC(=O)[C@@H]2CCCN2C(=O)[C@@H](Cc2ccccc2)NC(=O)[C@H](CC(C)C)NC(=O)[C@H](CCCN)NC(=O)[C@H](C(C)C)NC(=O)[C@@H]2CCCN2C(=O)[C@@H](Cc2ccccc2)NC1=O (cyclo(V[Orn]L[dF]PV[Orn]L[dF]P)) |  | 
 |  |  |  |  |  | CCn1cc(C(=O)O)c(=O)c2cc(F)c(N3CCNCC3)cc21 [NORFLOXACIN] |  | MIC (Escherichia coli [9]): 0.2 to 6 µM (≈ 0.0639 to 1.92 µg/mL); MIC (Staphylococcus aureus [10]): 0.8 to 3 µM (≈ 0.255 to 0.958 µg/mL)
> 36 | > 36 | > 36 | > 36 | > 36 | -2.2 | CC(=O)O[C@@H]1[C@@H](OC(C)=O)[C@H]2O[C@H]3[C@H](OC(C)=O)[C@@H](OC(C)=O)[C@@H](O[C@H]4[C@H](OC(C)=O)[C@@H](OC(C)=O)[C@@H](O[C@H]5[C@H](OC(C)=O)[C@@H](OC(C)=O)[C@@H](O[C@H]6[C@H](OC(C)=O)[C@@H](OC(C)=O)[C@@H](O[C@H]7[C@H](OC(C)=O)[C@@H](OC(C)=O)[C@@H](O[C@H]8[C@H](OC(C)=O)[C@@H](OC(C)=O)[C@@H](O[C@H]9[C@H](OC(C)=O)[C@@H](OC(C)=O)[C@@H](O[C@@H]1[C@@H](Cn1cc(CN)nn1)O2)O[C@@H]9Cn1cc(CN)nn1)O[C@@H]8Cn1cc(CN)nn1)O[C@@H]7Cn1cc(CN)nn1)O[C@@H]6Cn1cc(CN)nn1)O[C@@H]5Cn1cc(CN)nn1)O[C@@H]4Cn1cc(CN)nn1)O[C@@H]3Cn1cc(CN)nn1 | 1 | Activity (Staphylococcus aureus [11]): Active; Activity (Staphylococcus aureus [12]): Active; Activity (Escherichia coli [13]): Active; Activity (Escherichia coli [14]): Active
 |  |  |  |  |  | COLISTIN |  | MIC (Escherichia coli [2]; K-12 substr. W3110): 0.7 µM; MIC (Pseudomonas aeruginosa [3]): 2 µM

Molecule | MIC (Staphylococcus aureus [1]) [µM] | MIC (Bacillus subtilis) [µM] | MIC (Escherichia coli [2]; K-12 substr. W3110, 20 h) [µM] | MIC (Salmonella typhimurium) [µM] | MIC (Pseudomonas aeruginosa [3]; PAO1, 20 h) [µM] | logP [5] | hemolysis at 50 µM [4] [%] | further results
CCC(=O)O[C@@H]1[C@@H](OC(=O)CC)[C@H]2O[C@H]3[C@H](OC(=O)CC)[C@@H](OC(=O)CC)[C@@H](O[C@H]4[C@H](OC(=O)CC)[C@@H](OC(=O)CC)[C@@H](O[C@H]5[C@@H](OC(=O)CC)[C@@H](OC(=O)CC)[C@H](O[C@H]6[C@H](OC(=O)CC)[C@@H](OC(=O)CC)[C@@H](O[C@H]7[C@H](OC(=O)CC)[C@@H](OC(=O)CC)[C@@H](O[C@H]8[C@H](OC(=O)CC)[C@@H](OC(=O)CC)[C@@H](O[C@@H]1[C@@H](Cn1cc(CN)nn1)O2)O[C@@H]8Cn1cc(CN)nn1)O[C@@H]7Cn1cc(CN)nn1)O[C@@H]6Cn1cc(CN)nn1)O[C@@H]5Cn1cc(CN)nn1)O[C@@H]4Cn1cc(CN)nn1)O[C@@H]3Cn1cc(CN)nn1 | 5 (≈ 12.4 µg/mL) | 2 (≈ 4.96 µg/mL) | 2 (≈ 4.96 µg/mL) | 5 (≈ 12.4 µg/mL) | 2 (≈ 4.96 µg/mL) | -0.89 | 20 | MIC (Escherichia coli [6]): 6 µM (≈ 14.9 µg/mL); MIC (Escherichia coli [7]): 11 µM (≈ 27.3 µg/mL); MIC (Pseudomonas aeruginosa [8]): 6 µM (≈ 14.9 µg/mL)
